Results taken from patent publication US7820637B2, “Use of 5′-methylthioadenosine (MTA) in the prevention and/or treatment of autoimmune diseases and/or transplant rejection” (Proyecto de Biomedicina Cima, S.L., priority 2005, dated 2010).

How the values were obtained:
[1] = test system: IL-2, IFN-γ, TNF-α, IL-10 and iNOS mRNA; assay: Quantitative real-time PCR of cytokine and pro-inflammatory mediator mRNA in splenocytes; type: in vivo, rat; conditions: splenocytes of Lewis rats treated with MTA; relative to 18S rRNA (FIG. 5)
Description: Spleen, liver and blood samples were also obtained from each animal. The spleens and the livers were quickly frozen in liquid nitrogen and kept in fragments at −80° C. in order to be able to conduct the studies with RT-PCR (reverse transcription and polymerase chain reaction). The blood was centrifuged at 800 rpm for 10 minutes in order to obtain the serum, which was kept at −80° C.
The spleen and liver tissue segments were homogenised in RNA lysis buffer with 2% β-mercaptoethanol using a manual homogeniser. The total RNA was extracted using the Rneasy Mini Kit (Quiagen), following the manufacturer's instructions. During RNA purification, the DNA was eliminated by treatment with DNase. The RNA concentration and purity was determined by measuring the absorbance at 260 nm and 280 nm with a spectrophotometer (Eppendorf). Reverse transcription of the total RNA was performed using the High Capacity cDNA Archive Kit (Applied Biosystems). […]
For the quantitative PCR, the TaqMan Universal Master Mix (Applied Biosystems) was used. […]
The IL-2, IFN-γ, TNF-α, IL-10 and iNOS mRNA expression levels were quantified in relation to the rRNA 18S constitutive gene.
It was assessed whether MTA had the capacity to modify the expression of cytokines and other pro-inflammatory mediators. The IL-2, IFN-γ, TNF-α, IL-10 and iNOS gene expression was analysed by means of quantitative real-time PCR (RT-PCR). […]

[2] = test system: acute EAE in Lewis rats immunised with MBP; assay: Acute EAE induction and clinical score in Lewis rats immunised with MBP; type: in vivo, rat
[3] = test system: chronic-recurrent EAE (CR-EAE) in Dark Agouti (DA) rats immunised with MOG; assay: Chronic-recurrent EAE (CR-EAE) clinical score and survival in DA rats immunised with rMOG; type: in vivo, rat
[4] = test system: splenocytes (MBP-specific T-lymphocyte response); assay: Lymphocyte proliferation assay (MBP-induced, splenocytes of treated rats); type: cell-based, rat; conditions: splenocytes of Lewis rats immunised with MBP, day 16 after immunisation, treated in vivo with MTA; MBP 10 μg/ml
Description: The splenocytes were purified by means of Ficoll Hypaque density centrifugation starting from the rats with EAE and non-immunised rats. The lymphocite proliferation assay was conducted in the same manner as previously described [Villoslada, P., et al., J. Exp Med, 2000. 191 (10):1799-806].
Briefly, the splenocytes were placed in culture at a concentration of 2×10^6/ml in RPMI 1640 medium supplemented with 10% fetal bovine serum and penicillin/streptomycin, in the presence or absence of phytohemagglutinin (PHA, 5 μg/ml), MBP (10 μg/ml), MTA (100 μM) and DMSO. The cultures were incubated for 5 days in 96-well round-base plates (0.2 ml/well) at 37° C. The wells were struck with 0.5 μCi [^3H]TdR for 18 hours. The reading was performed using a liquid scintillation counter. The results were expressed as the mean stimulation index of the triplicate determinations.
In order to determine whether treatment with MTA modified the peripheral immune system's response to the antigen used in the immunisation, the MBP-induced proliferation responses were measured in splenocytes of animals treated with MTA and placebo (in Lewis rats). […] Therefore, it is observed that MTA inhibits the MBP-specific lymphocyte activation, which points to its immunomodulatory effect.

[5] = test system: inflammatory infiltrates in brain and spinal cord of Lewis rats immunised with MBP; assay: Histopathology and immunohistochemistry of brain and spinal cord; type: in vivo, rat
Description: The two Lewis rat groups were anaesthetised and injected by intracardiac route with 4% paraformaldehyde in 0.1 M phosphate buffer (pH 7.6) on day 16 of the disease. The brains and the cervical, thoracic and lumbar spinal cord segments were extracted and fixated for the entire night at 4° C. After fixation, the tissues were soaked in paraffin for histopathology and immunohistochemistry.
Histological evaluation of the brain and spinal cord sections included in paraffin was conducted. The sections were stained with hematoxylin-eosin (HE) and Luxol fast-blue in order to be able to assess the tissues' inflammation and demyelination. 24-30 sagital sections were examined for each rat. The blind semi-quantitative histological evaluation of inflammation and demyelination was conducted as previously described [Villoslada, P., et al., J. Exp Med, 2000. 191 (10):1799-806].
The immunohistochemical procedures were conducted on […] brain and medulla sections included in paraffin. The endogenous peroxidase activity was deactivated by means of 0.3% H2O2 in methanol for 20 min.
The sections were incubated for 30 min in PBS with 0.5% Tween® 20 and 10% goat or horse serum (Vector Laboratorios) and for 2 hours in PBS with 0.5% Tween® 20 and the primary antibodies in the following dilutions: rabbit antiglial fibrillary acid polyclonal anti-protein antibody (GFAP), 1:1,000 (Dakocytomation); mouse beta-amyloid precursor anti-protein antibody (APP), 1:100 (Zymed Laboratorios); mouse […] (OX-6), 1:200 (Serotec); rat anti-CD8 antibody, 1:250 (Serotec); type II anti-iNOS antibody, 1:250 (Serotec); rat anti-CD68 antibody (ED1), 1:200 (Serotec) and rat anti-CD43 antibody (W3/13), 1:50 (Serotec). Subsequently, the sections were washed with PBS and incubated for 45 min at room temperature with the appropriate biotinylated secondary IgG antibody (1:100 in PBS; Vector Laboratorios), followed by several washes in PBS/Tween® and a 45-min incubation at room temperature with the avidin-biotin peroxidase complex (ABC, Vector Laboratorios).
The immunoreaction specificity was determined by incubating the sections without the primary antibody. The images were obtained using an optic microscope.
The neuropathological evaluation confirmed the observed clinical protection. […] Inflammatory lesions were found in both the white and grey matter of the cervical, thoracic and lumbar spinal cord, and the brain. […] There were significant differences between the placebo animals and those treated with MTA in terms of both the severity and the central nervous system (CNS) regions affected. Treatment with MTA inhibits the development of inflammatory EAE in Lewis rats immunised with MBP.

[6] = MTA 4.3 mg/animal i.p. daily from immunisation
[7] = 100 μM MTA i.p. daily from day 15 after immunisation
[8] = immunohistochemical staining, MTA versus placebo group

CSCC1OC(n2cnc3c(N)ncnc32)C(O)C1O (stereo not drawn) [MTA, 5′-methylthioadenosine]
mRNA expression of cytokines (IL-2, IFN-γ, TNF-α, IL-10, iNOS) versus placebo group [1]: lower | EAE Incidence (%) [2, 6]: (28.57%) | EAE Incidence (rats with EAE / number of rats) [2, 6]: 4/14 | Cumulative EAE Score ([2]; MTA i.p. daily from immunisation): 2 ± 0.07 | Onset of EAE ([2]; MTA i.p. daily from immunisation, treated animals that developed symptoms): 15 ± 1.2 days | Cumulative EAE Score [3, 7]: 23 ± 20 | Incidence 2nd outbreak [3, 7]: 10/10 | Onset (days) 2nd outbreak [3, 7]: 26 ± 6 days | Max. EAE Score ([3]; 100 μM MTA i.p. daily from day 15 after immunisation, scale 0-5): 1.8 ± 1.5 | survival rate versus placebo group ([3]; survival curves to score 3.5 and to exitus (FIG. 3)): significantly higher | stimulation index (MBP-specific proliferation response) [4]: 1.18±0.4 | number of positive ED1 and W3/13 cells in inflammatory infiltrates [5, 8]: higher in the placebo group | proportions of positive OX-6 cells in inflammatory infiltrates [5, 8]: same proportions | stains for APP and iNOS ([5]; immunohistochemical staining, both groups): very low detection levels | number and size of the inflammatory infiltrates versus placebo ([5]; spinal cord and brain, Lewis rats immunised with MBP (FIG. 6)): lower
